The text below walks through data of US20160207930A1 (LEO PHARMA A/S, priority 2013, published 2016).

Data set [1] is described as follows: Hepatic intrinsic clearance following incubation in human liver microsomes. It counts as in vitro ADME. Particulars: 0.5 μM test compound, NADPH, 0-30 min, scaled to g liver. In short, it runs like this: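 Compound incubated at 37° C with microsomes diluted to 0.55 mg/mL protein in 50 mM potassium phosphate pH 7.4 plus NADPH regenerating system; sampled 0–30 min and analysed by LC-MS/MS. Clint from ln(% parent remaining) slope, scaled to mL/min/g liver; Eh derived assuming 25.7 g/kg liver, 20.7 mL/min/kg blood flow.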
Background: Liver microsomes are a subcellular fraction often used to study metabolism.

The target in data set [2] is T1, NK1 Receptor (Homo sapiens, UniProt P25103).
T1 construct: Measurement of NK1 Receptor Mediated Intracellular [Ca^2+]; Mobilization in U251 MG Cells Using FLIPR; endogenous in cells; host or cells: U251 MG cells
T1 sequence (P25103 whole entry): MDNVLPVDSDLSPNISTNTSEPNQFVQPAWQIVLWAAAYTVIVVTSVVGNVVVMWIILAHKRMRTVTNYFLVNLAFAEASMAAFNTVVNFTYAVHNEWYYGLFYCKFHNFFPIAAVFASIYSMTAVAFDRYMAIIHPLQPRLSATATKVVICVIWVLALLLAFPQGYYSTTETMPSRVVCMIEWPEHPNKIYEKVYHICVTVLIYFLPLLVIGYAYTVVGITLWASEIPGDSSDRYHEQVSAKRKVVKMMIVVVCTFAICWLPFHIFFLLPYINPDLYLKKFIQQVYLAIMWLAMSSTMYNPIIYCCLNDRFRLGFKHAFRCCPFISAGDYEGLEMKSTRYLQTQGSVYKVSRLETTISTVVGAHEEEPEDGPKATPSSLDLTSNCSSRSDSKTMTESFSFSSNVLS
As to the kind of experiment: NK1 receptor mediated intracellular [Ca2+] mobilization in U251 MG cells using FLIPR. It counts as cell-based. Particulars: antagonism of Substance P (EC80), Fluo-4, read-out: NK1R mediated intracellular [Ca^2+] mobilization IC 50. In short, it runs like this:
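Fluo-4-loaded U251 MG cells preincubated with compound (0.5% DMSO final), checked 5 min for agonism, then 10 min at 37 °C before Substance P at EC80. Peak fluorescence change on FLIPR, normalized to 100 nM Aprepitant maximal response; IC50 by four-parameter logistic fit, reported as pIC50.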

Turning to `Cc1ncc([C@H]2[C@@H]3CCC(=O)N3CCN2C(=O)N(C)[C@H](C)c2cc(C(F)(F)F)cc(C(F)(F)F)c2)s1` [Compound 58, (1R,8aS)—N—((R)-1-(3,5-bis(trifluoromethyl)phenyl)ethyl)-N-methyl-1-(2-methylthiazol-5-yl)-6-oxohexahydropyrrolo[1,2-a]pyrazine-2(1H)-carboxamide], the “Human in vitro Clint” value in data set [1] was over 200 mL/min/g. The IC50 in data set [2] came out at 28.6 nM.
On to `COc1cccc([C@H]2[C@@H]3CCC(=O)N3CCN2C(=O)N(C)[C@H](C)c2cc(C(F)(F)F)cc(C(F)(F)F)c2)c1C` [Compound 77, (1S,8aS)—N—((R)-1-(3,5-bis(trifluoromethyl)phenyl)ethyl)-1-(3-methoxy-2-methylphenyl)-N-methyl-6-oxohexahydropyrrolo[1,2-a]pyrazine-2(1H)-carboxamide], for which the “Human in vitro Clint” value in data set [1] is over 200 mL/min/g. Further, the IC50 in data set [2] was found to be 0.52 nM.
With `Cc1cc([C@@H](C)N(C)C(=O)N2CCN3C(=O)C(CCO)(CCO)CC3C2c2ccc(C)cc2C)cc(C(F)(F)F)c1` (mixture of isomers) [Compound 8, 1-(2,4-dimethylphenyl)-7,7-bis(2-hydroxyethyl)-N-methyl-N—((R)-1-(3-methyl-5-(trifluoromethyl)phenyl)ethyl)-6-oxo-hexahydropyrrolo[1,2-a]pyrazine-2(1H)-carboxamide], the “Human in vitro Clint” value in data set [1] is over 200 mL/min/g. Besides, the IC50 in data set [2] was 0.096 nM.
Take `Cc1c(Cl)cccc1[C@H]1[C@@H]2CCC(=O)N2CCN1C(=O)N(C)[C@H](C)c1cc(C(F)(F)F)cc(C(F)(F)F)c1` [Compound 66, (1S,8aS)—N—((R)-1-(3,5-bis(trifluoromethyl)phenyl)ethyl)-1-(3-chloro-2-methylphenyl)-N-methyl-6-oxohexahydropyrrolo[1,2-a]pyrazine-2(1H)-carboxamide]: the “Human in vitro Clint” value in data set [1] was 51 mL/min/g. Also, in data set [2], the IC50 was determined as 0.14 nM.
For `Cc1ccncc1[C@H]1[C@@H]2CCC(=O)N2CCN1C(=O)N(C)[C@H](C)c1cc(C(F)(F)F)cc(C(F)(F)F)c1` [Compound 45, (1S,8aS)—N—((R)-1-(3,5-bis(trifluoromethyl)phenyl)ethyl)-N-methyl-1-(4-methylpyridin-3-yl)-6-oxo-hexahydropyrrolo[1,2-a]pyrazine-2(1H)-carboxamide], the “Human in vitro Clint” value in data set [1] was under 10 mL/min/g. The IC50 in data set [2] is 0.772 nM.
With `Cc1cc([C@@H](C)N(C)C(=O)N2CCN3C(=O)CC[C@H]3[C@@H]2c2sccc2C)cc(C(F)(F)F)c1` [Compound 52, (1R,8aS)—N-methyl-N—((R)-1-(3-methyl-5-(trifluoromethyl)phenyl)ethyl)-1-(3-methylthiophen-2-yl)-6-oxohexahydropyrrolo[1,2-a]pyrazine-2(1H)-carboxamide], the “Human in vitro Clint” value in data set [1] is over 200 mL/min/g. For the same molecule, in data set [2], the IC50 was 0.353 nM.
`Cc1ccc(C2C3CCC(=O)N3CCN2C(=O)N(C)[C@H](C)c2cc(C(F)(F)F)cc(C(F)(F)F)c2)c(C)c1` (single isomer, unassigned) [Compound 2]: the “Human in vitro Clint” value in data set [1] was over 200 mL/min/g. For the same molecule, in data set [2], the IC50 amounted to 7.79 nM.
On to `Cc1cccc([C@H]2[C@@H]3CCC(=O)N3CCN2C(=O)N(C)[C@H](C)c2cc(C(C)C)cc(C(F)(F)F)c2)c1C` [Compound 42], for which the “Human in vitro Clint” value in data set [1] was over 200 mL/min/g. Further, the IC50 in data set [2] is 0.306 nM.
`Cc1cc([C@@H](C)N(C)C(=O)N2CCN3C(=O)C(CCO)(CCO)C[C@H]3[C@@H]2c2c[nH]nc2C)cc(C(F)(F)F)c1` [Compound 63, (1S,8aS)-7,7-bis(2-hydroxyethyl)-N-methyl-1-(3-methyl-1H-pyrazol-4-yl)-N—((R)-1-(3-methyl-5-(trifluoromethyl)phenyl)ethyl)-6-oxo-hexahydropyrrolo[1,2-a]pyrazine-2(1H)-carboxamide]: the “Human in vitro Clint” value in data set [1] was found to be 51 mL/min/g. Also, in data set [2], the IC50 was found to be 9.29 nM.
For the molecule `Cc1cc([C@@H](C)N(C)C(=O)N2CCN3C(=O)CC[C@H]3[C@@H]2c2cccc(C)c2C)cc(C(F)(F)F)c1` [Compound 65], the “Human in vitro Clint” value in data set [1] was over 200 mL/min/g. For the same molecule, the IC50 in data set [2] came to 0.365 nM.
For the molecule `Cc1ccc(C2C3CC(CCO)(CCO)C(=O)N3CCN2C(=O)N(C)[C@H](C)c2cc(C(F)(F)F)cc(C(F)(F)F)c2)c(C)c1` (single isomer, unassigned) [Compound 6], the “Human in vitro Clint” value in data set [1] is over 200 mL/min/g. Also, the IC50 in data set [2] is 1.59 nM.
As to `CCc1cc([C@@H](C)N(C)C(=O)N2CCN3C(=O)CC[C@H]3[C@@H]2c2cscc2C)cc(C(F)(F)F)c1` [Compound 49, (1S,8aS)—N—((R)-1-(3-ethyl-5-(trifluoromethyl)phenyl)ethyl)-N-methyl-1-(4-methylthiophen-3-yl)-6-oxohexahydropyrrolo[1,2-a]pyrazine-2(1H)-carboxamide], the “Human in vitro Clint” value in data set [1] is over 200 mL/min/g. The IC50 in data set [2] was found to be 0.999 nM.
